Where a SMILES comes first, the peptide text is derived from it. Where no end group is shown, it is not given here. [ ]: non-standard residue; d: D form. The star is where a group is joined. Orn = NCCC[C@H](N)C(=O)O; Hexanoyl = CCCCCC(=O)*; Aib = CC(C)(N)C(=O)O
Key:
human VPAC2 [1] = biological target: T1, human VPAC2 (Homo sapiens, UniProt P41587); assay: Alpha screen cAMP in vitro potency, human VPAC2 receptor; assay type: cell-based; conditions: cAMP generation; single result from two analyses performed in a single run; read-out: Human VPAC2 Receptor: Alpha Screen EC50
T1 construct: expressed in transfected cells
T1 sequence (P41587 24-438): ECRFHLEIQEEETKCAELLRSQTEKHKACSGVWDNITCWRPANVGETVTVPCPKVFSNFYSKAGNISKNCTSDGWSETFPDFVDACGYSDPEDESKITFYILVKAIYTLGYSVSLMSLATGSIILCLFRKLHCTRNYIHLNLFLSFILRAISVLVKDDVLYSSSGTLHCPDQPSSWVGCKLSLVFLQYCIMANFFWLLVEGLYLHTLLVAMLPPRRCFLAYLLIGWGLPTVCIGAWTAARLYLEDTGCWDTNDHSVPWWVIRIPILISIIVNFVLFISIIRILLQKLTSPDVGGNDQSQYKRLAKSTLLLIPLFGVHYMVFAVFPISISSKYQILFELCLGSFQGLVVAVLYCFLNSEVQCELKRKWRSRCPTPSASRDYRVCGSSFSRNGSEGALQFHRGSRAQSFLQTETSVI
Method in brief: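 Stimulated cAMP accumulation is read by AlphaScreen after 60 min exposure of 50,000 non-enzymatically harvested cells to compound, followed by lysis with donor beads.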

human VPAC2 [2] = biological target: T1, human VPAC2; assay: Filter binding assay, membranes of stable VPAC2 cell line, 125I-labeled VIP tracer (Table 2); conditions: read-out: Human VPAC2 Receptor Binding
Method in brief: (§1)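 Competition binding of agonists against radiotracer on receptor membranes (2.5 μg) in 25 mM HEPES pH 7.4 with 0.5% protease-free BSA, about 40000 cpm tracer, 1 hour with shaking. Bound tracer was separated by filtration on PEI-presoaked, BSA-blocked glass-fibre filters, washed and counted by scintillation.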

[3] = Rat serum stability studies (remaining active peptide by DiscoveRx cAMP on CHO-VPAC2 cells); assay type: in vitro ADME
Method in brief: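 Rat serum, 18 h: +aprotinin aliquot at 4° C, no-aprotinin aliquot at 37° C. Then 30 min RT step, supernatant removed, 1 h shaking at 300 rpm. DiscoveRx cAMP kit on CHO-VPAC2; EC50 from cAMP data vs standards.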

human VPAC1 = biological target: T2, human VPAC1 (Homo sapiens, UniProt P32241); assay: Filter binding assay, membranes of cells transiently transfected with human VPAC1, 125I-labeled VIP tracer (Table 2); design: expressed in transfected cells; conditions: read-out: Human VPAC1 Receptor Binding
T2 sequence (P32241 31-457): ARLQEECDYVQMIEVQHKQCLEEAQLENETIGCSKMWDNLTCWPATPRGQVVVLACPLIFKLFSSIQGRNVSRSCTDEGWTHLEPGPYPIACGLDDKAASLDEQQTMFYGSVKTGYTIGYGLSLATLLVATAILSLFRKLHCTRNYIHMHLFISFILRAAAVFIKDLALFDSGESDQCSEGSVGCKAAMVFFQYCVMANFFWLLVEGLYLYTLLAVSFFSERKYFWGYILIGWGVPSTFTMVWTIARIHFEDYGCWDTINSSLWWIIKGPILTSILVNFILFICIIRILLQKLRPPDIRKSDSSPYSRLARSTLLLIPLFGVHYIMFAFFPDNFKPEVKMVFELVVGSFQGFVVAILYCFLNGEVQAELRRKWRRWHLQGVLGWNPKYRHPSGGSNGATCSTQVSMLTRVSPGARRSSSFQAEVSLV
Method in brief: as §1

human PAC1 = biological target: T3, human PAC1 (Homo sapiens, UniProt P41586); assay: Filter binding assay, membranes of cells transiently transfected with human PAC1, 125I-labeled PACAP-27 tracer (Table 2); design: expressed in transfected cells; conditions: read-out: Human PAC1 Receptor Binding
T3 sequence (P41586 21-468): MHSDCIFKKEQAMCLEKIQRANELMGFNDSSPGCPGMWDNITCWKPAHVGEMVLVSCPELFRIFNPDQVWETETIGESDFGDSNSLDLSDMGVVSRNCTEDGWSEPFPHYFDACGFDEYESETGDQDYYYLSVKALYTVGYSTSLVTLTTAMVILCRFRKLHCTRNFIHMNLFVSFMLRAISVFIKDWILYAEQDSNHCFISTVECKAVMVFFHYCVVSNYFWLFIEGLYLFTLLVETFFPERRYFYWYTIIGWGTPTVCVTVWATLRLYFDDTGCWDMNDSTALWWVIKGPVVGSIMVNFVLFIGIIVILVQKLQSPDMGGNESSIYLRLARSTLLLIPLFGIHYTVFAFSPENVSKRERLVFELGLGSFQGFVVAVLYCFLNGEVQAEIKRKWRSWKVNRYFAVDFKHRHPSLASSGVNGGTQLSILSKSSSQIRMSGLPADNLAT
Method in brief: as §1

Compound	EC50 (human VPAC2 [1]) [nM]	IC50 (human VPAC2 [2]) [nM]	Rat Serum Stability (estimated purity in % after 18 hours) [3] [%]	IC50 (human VPAC1) [nM]	IC50 (human PAC1) [nM]	Rat Serum Stability (Estimated purity in % after 72 hours) [3] [%]
Hexanoyl-HSDAVFTDNYTRLRKQVALKKYLQSIKNKRYGGPSSGAPPPS [Agonist P155]	0.24	0.71	0.25	231	148	–
Hexanoyl-HSDAVFTDNYTRLR[Aib]QVAAAKYLQSIKNKRYGGPSSGAPPPS [Agonist P263]	0.07	0.38	11.72	2680	636	–
Hexanoyl-HSDAVFTDNYTRLRKQVAAKQYLQSIKNKRYGGPSSGAPPPS [Agonist P183]	0.14	0.26	0.18	424	506	–
Hexanoyl-HVDAVFTDNYTRLRKQVAAKKYLQSIKNKRYGGPSSGAPPPS [Agonist P99]	0.14	1.72	0.61	394	2060	–
Hexanoyl-HSDAVFTDNYTRLR[Orn]QVAAKKYLQSIKNKRYGGPSSGAPPPS [Agonist P307]	0.32	0.28	0.32	274	293	–
Hexanoyl-HSD[Aib]VFTDNYTRLRKQVAAKKYLQSIKNKRYGGPSSGAPPPS [Agonist P209]	0.1	0.2	0.13	130	343	–
Hexanoyl-HSDAVFTDNYTRLAKQVAAKKYLQSIKNKRYGGPSSGAPPPS [Agonist P173]	0.25	0.55	1.04	1790	756	–
Hexanoyl-HSDAVFTDNYTRLQ[Aib]QVAAKKYLQSIKNKRYGGPSSGAPPPS [Agonist P258]	0.17	0.63	9.47	> 3000	> 25000	–
Hexanoyl-HSDAVFTDNYTRLQKQVAAKQYLQSIKNKRYGGPSSGAPPPS [Agonist P253]	0.46	1.78	1.27	2160	> 25000	–
Hexanoyl-HSDAVFTDNYTRLR[Aib]QVAAVKYLQSIKNKRYGGPSSGAPPPS [Agonist P262]	0.24	0.61	10.14	> 3000	> 25000	–
Hexanoyl-HSDAVFTDNYTRL[Aib]KQVAAKKYLQSIKNKRYGGPSSGAPPPS [Agonist P167]	0.17	1.14	14.98	1150	1010	–
Hexanoyl-HSDAVFTDNYTRLRKQVAAVKYLQSIKNKRYGGPSSGAPPPS [Agonist P146]	0.17	0.52	0.53	401	1540	–
Hexanoyl-HSDAVFTDNYTRLRKQVAAKKYWQSIKNKRYGGPSSGAPPPS [Agonist P230]	0.3	0.75	0.53	661	463	–
Hexanoyl-HSDAVFTKNYTRLRKQVAAKKYLQSIKNKRYGGPSSGAPPPS [Agonist P160]	13.2	4.77	<4.25	50.3	262	–
Hexanoyl-HSDAVFTEEYTRLQKQVAAKQYLQSIKNKRYGGPSSGAPPPS [Agonist P165]	0.94	18.4	7.28	486	2860	–
CCCCCC(=O)N[C@@H](Cc1c[nH]cn1)C(=O)N[C@@H](CO)C(=O)N[C@@H](CC(=O)O)C(=O)N[C@@H](C)C(=O)N[C@H](C(=O)N[C@@H](Cc1ccccc1)C(=O)N[C@H](C(=O)N[C@@H](CC(=O)O)C(=O)N[C@@H](CC(N)=O)C(=O)N[C@@H](Cc1ccc(O)cc1)C(=O)N[C@H](C(=O)N[C@@H](CCCNC(=N)N)C(=O)N[C@@H](CC(C)C)C(=O)N[C@@H](CCCNC(=N)N)C(=O)NC(C)(C)C(=O)N[C@@H](CCC(N)=O)C(=O)N[C@H](C(=O)N[C@@H](C)C(=O)N[C@@H](C)C(=O)NC(C)(C)C(=O)N[C@@H](CCCCN)C(=O)N[C@@H](Cc1ccc(O)cc1)C(=O)N[C@@H](CC(C)C)C(=O)N[C@@H](CCC(N)=O)C(=O)N[C@@H](CO)C(=O)N[C@H](C(=O)N[C@@H](CCCCN)C(=O)N[C@@H](CCC(N)=O)C(=O)N[C@@H](CCCCN)C(=O)NCC(=O)NCC(=O)N1CCC[C@H]1C(=O)N[C@@H](CO)C(=O)N[C@@H](CO)C(=O)NCC(=O)N[C@@H](C)C(=O)N1CCC[C@H]1C(=O)N1CCC[C@H]1C(=O)N1CCC[C@H]1C(=O)N[C@@H](CO)C(=O)O)[C@@H](C)CC)C(C)C)[C@@H](C)O)[C@@H](C)O)C(C)C [Agonist P294] (Hexanoyl-HSDAVFTDNYTRLR[Aib]QVAA[Aib]KYLQSIKQKGGPSSGAPPPS-OH; C-terminus assumed)	0.24	0.45	24.25	> 3000	> 25000	–
Hexanoyl-HSDAVFTDNYTRL[Aib]KQLAA[Aib]KYLQSIKNKRYGGPSSGAPPPS [Agonist P240]	0.51	6.08	43.87	> 3000	> 25000	10.4
Hexanoyl-HSDAVFTDNYTRLRKQVAATKYLQSIKNKRYGGPSSGAPPPS [Agonist P152]	0.17	0.37	0.06	514	672	–
Hexanoyl-HSDAVFTDNYTRLQ[Aib]QVAA[Aib]KYLQSIKNKRYGGPSSGAPPPS [Agonist P302]	0.45	1.62	21.43	> 3000	> 25000	–
Hexanoyl-HSDAVFTDNYTRLRKQLAAKKYLQSIKNKRYGGPSSGAPPPS [Agonist P290]	0.22	0.27	0.11	221	209	–
Hexanoyl-HSDAVFTDNYTRLQKQVAAK[Aib]YLQSIKNKRYGGPSSGAPPPS [Agonist P251]	0.92	2.33	6.63	> 3000	> 25000	–
Hexanoyl-HSDAVFTDNYTRLLKQVAAKKYLQSIKNKRYGGPSSGAPPPS [Agonist P174]	0.26	55.1	1.91	302	621	–
Hexanoyl-HSDAVFTDNYTRLRKQVAAKKYFQSIKNKRYGGPSSGAPPPS [Agonist P231]	0.26	0.55	0.57	458	300	–
Hexanoyl-HSDAVFTDNYTRLQKQVAAQKYLQSIKNKRYGGPSSGAPPPS [Agonist P252]	0.26	0.98	1.19	1180	> 25000	–

From patent US20080026996A1, “Selective Vpac2 Receptor Reptide Agonists” (ELI LILLY AND COMPANY, priority 2004, published 2008)
